Source: patent US11452718B2 (AVALYN PHARMA INC., priority 2012, dated 2022)
Marks after values point to notes of the source that are not given here.

What was measured:
[1] = Co-solvent and surfactant effects on pirfenidone solubility; assay type: physicochemical
Protocol: Each sample was agitated at ambient temperature overnight. The samples were visually inspected and appearance recorded. Samples were centrifuged to sediment any un-dissolved material and the supernatant withdrawn via syringe through a 0.22 μm PVDF filter. […] The remaining filtered sample was split into three equal volumes in glass vials and placed at 25° C./60RH, 40° C./75RH and refrigeration. Samples are wrapped in aluminum foil to reduce light exposure. After the first night of incubation, samples are briefly visually inspected for any signs of discoloration or precipitate formation.

[2] = Osmolality determination and nebulization for taste testing, throat irritation and cough response of selected formulations; conditions: for Cough Response? / Throat Irritation?: nebulized
Excerpt: Selected formulations were subjected to osmolality determination and nebulization for taste testing and throat irritation and or cough response.

[3] = 85% saturation pirfenidone formulations exposed to several temperatures (re-crystallization); assay type: physicochemical; conditions: overnight
Excerpt: However, in all cases pirfenidone eventually re-crystallized. This re-crystallization was not inhibited by pre-filtration of the sample.

[4] = Stability assessment of pirfenidone formulations at 25° C./60RH and 40° C./75RH; assay type: physicochemical
Protocol: The sample was agitated until completely dissolved. Once dissolved, samples were filtered via syringe through a 0.22 μm PVDF filter.
Samples were refrigerated to reduce evaporative loss of volatile co-solvents (ethanol) during filtration and dispensing. An approximate 5.0-mL aliquot of each formulation was transferred to class A glass 6 ml containers with suitable closures (20 mm stopper). At least 8 containers are being maintained in the upright orientation at 25° C./60RH, and another 8 containers maintained at 40° C./75RH.

[5] = pirfenidone 27.2 mg/mL, 4% EtOH, 8% PG, 88% phosphate buffer (5 mM), pH 6.6
[6] = pirfenidone 34.7 mg/mL, 6% EtOH, 12% PG, 82% phosphate buffer (5 mM), pH 7.0
[7] = pirfenidone 43.7 mg/mL, 8% EtOH, 16% PG, 0 mM sodium saccharin, 76% phosphate buffer (5 mM), pH 7.0
[8] = pirfenidone 43.7 mg/mL, 8% EtOH, 16% PG, 0.3 mM sodium saccharin, 76% phosphate buffer (5 mM), pH 7.0
[9] = 25° C./60% RH, 5 mM phosphate buffer pH 6.5 plus 1% (v/v) EtOH, 2% (v/v) PG, target pirfenidone 1 mg/mL
[10] = 25° C./60% RH, 5 mM phosphate buffer pH 6.5 plus 1% (v/v) EtOH, 2% (v/v) PG, target pirfenidone 15 mg/mL
[11] = 25° C./60% RH, 5 mM phosphate buffer pH 6.5 plus 4% (v/v) EtOH, 8% (v/v) PG, target pirfenidone 23 mg/mL
[12] = 25° C./60% RH, 5 mM phosphate buffer pH 6.5 plus 6% (v/v) EtOH, 12% (v/v) PG, target pirfenidone 30 mg/mL
[13] = 25° C./60% RH, 5 mM phosphate buffer pH 6.5 plus 8% (v/v) EtOH, 16% (v/v) PG, target pirfenidone 1 mg/mL
[14] = 25° C./60% RH, 5 mM phosphate buffer pH 6.5 plus 8% (v/v) EtOH, 16% (v/v) PG, target pirfenidone 38 mg/mL

Q: For `Cc1ccc(=O)n(-c2ccccc2)c1` [pirfenidone, 5-methyl-1-phenyl-2-(1H)-pyridone], which “Pirfenidone Saturation Solubility” value ([1]; 4% EtOH, 0.1% CPB, 95.9% water, pH 4.9) is on record?
A: The value was 20.2 mg/mL.

Q: And the “effect of co-solvent on saturation solubility” value ([1]; ethanol (EtOH) or propylene glycol (PG))?
A: The value was “increase the saturation solubility”.

Q: And the “effect of co-solvents on saturation solubility” value ([1]; ethanol and propylene glycol together)?
A: The value was “additive effect in increasing the saturation solubility”.

Q: What about the “Cough Response?” value [2, 5] of the same molecule?
A: Its value is “No”.

Q: And the “Throat Irritation?” value [2, 5]?
A: Its value is “No”.

Q: And the “Cough Response?” value [2, 6]?
A: Its value is “No”.

Q: What about the “Throat Irritation?” value [2, 6] of the same molecule?
A: The value was “No”.

Q: What about the “Cough Response?” value [2, 7] of the same molecule?
A: The value was “No”.

Q: And the “Throat Irritation?” value [2, 7]?
A: The value was “No”.

Q: What about the “Cough Response?” value [2, 8] of the same molecule?
A: Its value is “No”.

Q: What about the “Throat Irritation?” value [2, 8] of the same molecule?
A: Its value is “No”.

Q: What about the Osmolality ([2]; pirfenidone 27.2 mg/mL, 4% EtOH, 8% PG, 88% phosphate buffer (5 mM), pH 6.6, calculated) of the same molecule?
A: Its Osmolality is ~1830* mOsmo/Kg.

Q: What about the Osmolality ([2]; pirfenidone 34.7 mg/mL, 6% EtOH, 12% PG, 82% phosphate buffer (5 mM), pH 7.0, calculated) of the same molecule?
A: Its Osmolality is ~2750* mOsmo/Kg.

Q: And the Osmolality [2, 7]?
A: Its Osmolality is 3672 mOsmo/Kg.

Q: What about the Osmolality [2, 8] of the same molecule?
A: The Osmolality was 3672 mOsmo/Kg.

Q: What about the Recrystallization upon storage ([3]; 4° C., pirfenidone 23.0 mg/mL (85% saturation), 4% EtOH, 8% PG, 88% phosphate buffer (5 mM), pH 6.6) of the same molecule?
A: Its Recrystallization upon storage is “No”.

Q: What about the Recrystallization upon storage ([3]; 4° C., pirfenidone 29.5 mg/mL, 6% EtOH, 12% PG, 82% phosphate buffer (5 mM), pH 7.0) of the same molecule?
A: The Recrystallization upon storage was “No”.

Q: What about the Recrystallization upon storage ([3]; 4° C., pirfenidone […], 8% EtOH, 16% PG, 76% phosphate buffer (5 mM), pH 7.0) of the same molecule?
A: Its Recrystallization upon storage is “No”.

Q: What about the Recrystallization upon storage ([3]; 15° C., pirfenidone 23.0 mg/mL (85% saturation), 4% EtOH, 8% PG, 88% phosphate buffer (5 mM), pH 6.6) of the same molecule?
A: Its Recrystallization upon storage is “No”.

Q: And the Recrystallization upon storage ([3]; 15° C., pirfenidone 29.5 mg/mL, 6% EtOH, 12% PG, 82% phosphate buffer (5 mM), pH 7.0)?
A: The Recrystallization upon storage was “No”.

Q: And the Recrystallization upon storage ([3]; 15° C., pirfenidone […], 8% EtOH, 16% PG, 76% phosphate buffer (5 mM), pH 7.0)?
A: Its Recrystallization upon storage is “No”.

Q: What about the Recrystallization upon storage ([3]; 25° C., pirfenidone 23.0 mg/mL (85% saturation), 4% EtOH, 8% PG, 88% phosphate buffer (5 mM), pH 6.6) of the same molecule?
A: The Recrystallization upon storage was “No”.

Q: And the Recrystallization upon storage ([3]; 25° C., pirfenidone 27.2 mg/mL (saturation solubility), 4% EtOH, 8% PG, 88% phosphate buffer (5 mM), pH 6.6)?
A: The Recrystallization upon storage was “Yes”.

Q: What about the Recrystallization upon storage ([3]; 25° C., pirfenidone 29.5 mg/mL, 6% EtOH, 12% PG, 82% phosphate buffer (5 mM), pH 7.0) of the same molecule?
A: Its Recrystallization upon storage is “No”.

Q: And the Recrystallization upon storage ([3]; 25° C., pirfenidone 34.7 mg/mL, 6% EtOH, 12% PG, 82% phosphate buffer (5 mM), pH 7.0)?
A: Its Recrystallization upon storage is “Yes”.

Q: What about the Recrystallization upon storage ([3]; 25° C., pirfenidone 43.7 mg/mL, 8% EtOH, 16% PG, 76% phosphate buffer (5 mM), pH 7.0) of the same molecule?
A: The Recrystallization upon storage was “Yes”.

Q: And the Recrystallization upon storage ([3]; 25° C., pirfenidone […], 8% EtOH, 16% PG, 76% phosphate buffer (5 mM), pH 7.0)?
A: Its Recrystallization upon storage is “No”.

Q: What about the Recrystallization upon storage ([3]; −20° C., pirfenidone 23.0 mg/mL (85% saturation), 4% EtOH, 8% PG, 88% phosphate buffer (5 mM), pH 6.6, crystals re-dissolved at 25° C. without agitation) of the same molecule?
A: The Recrystallization upon storage was “Yes^f”.

Q: And the Recrystallization upon storage ([3]; −20° C., pirfenidone 29.5 mg/mL, 6% EtOH, 12% PG, 82% phosphate buffer (5 mM), pH 7.0, crystals re-dissolved at 25° C. without agitation)?
A: Its Recrystallization upon storage is “Yes^f”.

Q: And the Recrystallization upon storage ([3]; −20° C., pirfenidone […], 8% EtOH, 16% PG, 76% phosphate buffer (5 mM), pH 7.0, crystals re-dissolved at 25° C. without agitation)?
A: The Recrystallization upon storage was “Yes^f”.

Q: What about the “Pirfenidone (mg/mL) at Time = 0” value [4, 9] of the same molecule?
A: Its value is 1.0 mg/mL.

Q: And the “Pirfenidone (mg/mL) at Time = 1 month” value [4, 9]?
A: The value was 1.0 mg/mL.

Q: What about the “Pirfenidone (mg/mL) at Time = 3 month” value [4, 9] of the same molecule?
A: The value was 1.0 mg/mL.

Q: And the “Pirfenidone (mg/mL) at Time = 6 month” value [4, 9]?
A: Its value is 1.0 mg/mL.

Q: What about the “Pirfenidone (mg/mL) at Time = 0” value [4, 10] of the same molecule?
A: Its value is 16.1 mg/mL.

Q: What about the “Pirfenidone (mg/mL) at Time = 1 month” value [4, 10] of the same molecule?
A: Its value is 15.1 mg/mL.

Q: What about the “Pirfenidone (mg/mL) at Time = 3 month” value [4, 10] of the same molecule?
A: The value was 14.9 mg/mL.

Q: What about the “Pirfenidone (mg/mL) at Time = 6 month” value [4, 10] of the same molecule?
A: Its value is 15.4 mg/mL.

Q: And the “Pirfenidone (mg/mL) at Time = 0” value [4, 11]?
A: The value was 24.1 mg/mL.

Q: What about the “Pirfenidone (mg/mL) at Time = 1 month” value [4, 11] of the same molecule?
A: The value was 22.1 mg/mL.

Q: What about the “Pirfenidone (mg/mL) at Time = 3 month” value [4, 11] of the same molecule?
A: The value was 22.3 mg/mL.

Q: And the “Pirfenidone (mg/mL) at Time = 6 month” value [4, 11]?
A: Its value is 23.2 mg/mL.

Q: What about the “Pirfenidone (mg/mL) at Time = 0” value [4, 12] of the same molecule?
A: Its value is 30.3 mg/mL.

Q: What about the “Pirfenidone (mg/mL) at Time = 1 month” value [4, 12] of the same molecule?
A: Its value is 30.1 mg/mL.

Q: And the “Pirfenidone (mg/mL) at Time = 3 month” value [4, 12]?
A: Its value is 29.6 mg/mL.

Q: What about the “Pirfenidone (mg/mL) at Time = 6 month” value [4, 12] of the same molecule?
A: The value was 31.0 mg/mL.

Q: What about the “Pirfenidone (mg/mL) at Time = 0” value [4, 13] of the same molecule?
A: The value was 1.0 mg/mL.

Q: What about the “Pirfenidone (mg/mL) at Time = 1 month” value [4, 13] of the same molecule?
A: The value was 1.0 mg/mL.

Q: And the “Pirfenidone (mg/mL) at Time = 3 month” value [4, 13]?
A: Its value is 1.0 mg/mL.

Q: And the “Pirfenidone (mg/mL) at Time = 6 month” value [4, 13]?
A: The value was 1.0 mg/mL.

Q: What about the “Pirfenidone (mg/mL) at Time = 0” value [4, 14] of the same molecule?
A: The value was 38.9 mg/mL.

Q: What about the “Pirfenidone (mg/mL) at Time = 1 month” value [4, 14] of the same molecule?
A: Its value is 38.3 mg/mL.

Q: What about the “Pirfenidone (mg/mL) at Time = 3 month” value [4, 14] of the same molecule?
A: The value was 38.0 mg/mL.

Q: What about the “Pirfenidone (mg/mL) at Time = 6 month” value [4, 14] of the same molecule?
A: Its value is 39.2 mg/mL.

Q: What about the “Pirfenidone (mg/mL) at Time = 0” value ([4]; 40° C./75% RH, 5 mM phosphate buffer pH 6.5 plus 1% (v/v) EtOH, 2% (v/v) PG, target pirfenidone 1 mg/mL) of the same molecule?
A: The value was 1.0 mg/mL.
